Test results as given in paper PMC3391087 (The Journal of Biological Chemistry, 2012).

Target: T1, aPIIQGAP1 (C-terminal aPI binding domain of IQGAP1) (Homo sapiens, UniProt P46940)
T1 sequence (P46940 1551-1657): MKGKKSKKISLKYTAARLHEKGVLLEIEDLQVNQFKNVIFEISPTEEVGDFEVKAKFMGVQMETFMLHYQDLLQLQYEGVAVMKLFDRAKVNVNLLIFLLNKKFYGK
Assay: TR-FRET competition
Details: displacement of biotinylated PtdInsP3 (2.5 pmol); 50 nM GST fusion

In the case of PtdInsP3, the IC50 is reported as roughly 0.5 µM.
